Laboratory results taken from patent US20020187514A1 (priority 1999, published 2002).

Key:
GABA A, Agonist Site = format: binding
Clozapine = format: binding
Serotonin, 5HT3 = Serotonin, 5HT3 (Mus musculus, UniProt P23979); assay: biochemical; format: binding
[1] = molecular target: Protein Phosphatase, PP2A (Homo sapiens, UniProt P67775); assay: Protein Phosphatase, PP2A (Human); substrate DiFMUP; format: biochemical; conditions: read-out: Pass 1 (10^−5 M) % Inhibition
Sodium, Site 1 = format: binding
Histamine, H1 = molecular target: T1, Histamine, H1 (Bos taurus, UniProt P30546); assay: Histamine, H1; [3H]Pyrilamine; format: binding; conditions: read-out: Pass 1 (10^−5 M) % Inhibition
T1 construct: no other source notation after assay name denotes animal cell or animal tissue source; from tissue; host or cells: animal cell or animal tissue, not specified

[2] = molecular target: Calcium Channel, Type L (Dihydropyridine Site) (Rattus norvegicus, UniProt P22002); assay: Calcium Channel, Type L (Dihydropyridine Site); [3H]Nitrendipine; format: binding; conditions: read-out: Pass 1 (10^−5 M) % Inhibition
Chain of Calcium Channel, Type L (Dihydropyridine Site) (P22002 whole entry, looked up): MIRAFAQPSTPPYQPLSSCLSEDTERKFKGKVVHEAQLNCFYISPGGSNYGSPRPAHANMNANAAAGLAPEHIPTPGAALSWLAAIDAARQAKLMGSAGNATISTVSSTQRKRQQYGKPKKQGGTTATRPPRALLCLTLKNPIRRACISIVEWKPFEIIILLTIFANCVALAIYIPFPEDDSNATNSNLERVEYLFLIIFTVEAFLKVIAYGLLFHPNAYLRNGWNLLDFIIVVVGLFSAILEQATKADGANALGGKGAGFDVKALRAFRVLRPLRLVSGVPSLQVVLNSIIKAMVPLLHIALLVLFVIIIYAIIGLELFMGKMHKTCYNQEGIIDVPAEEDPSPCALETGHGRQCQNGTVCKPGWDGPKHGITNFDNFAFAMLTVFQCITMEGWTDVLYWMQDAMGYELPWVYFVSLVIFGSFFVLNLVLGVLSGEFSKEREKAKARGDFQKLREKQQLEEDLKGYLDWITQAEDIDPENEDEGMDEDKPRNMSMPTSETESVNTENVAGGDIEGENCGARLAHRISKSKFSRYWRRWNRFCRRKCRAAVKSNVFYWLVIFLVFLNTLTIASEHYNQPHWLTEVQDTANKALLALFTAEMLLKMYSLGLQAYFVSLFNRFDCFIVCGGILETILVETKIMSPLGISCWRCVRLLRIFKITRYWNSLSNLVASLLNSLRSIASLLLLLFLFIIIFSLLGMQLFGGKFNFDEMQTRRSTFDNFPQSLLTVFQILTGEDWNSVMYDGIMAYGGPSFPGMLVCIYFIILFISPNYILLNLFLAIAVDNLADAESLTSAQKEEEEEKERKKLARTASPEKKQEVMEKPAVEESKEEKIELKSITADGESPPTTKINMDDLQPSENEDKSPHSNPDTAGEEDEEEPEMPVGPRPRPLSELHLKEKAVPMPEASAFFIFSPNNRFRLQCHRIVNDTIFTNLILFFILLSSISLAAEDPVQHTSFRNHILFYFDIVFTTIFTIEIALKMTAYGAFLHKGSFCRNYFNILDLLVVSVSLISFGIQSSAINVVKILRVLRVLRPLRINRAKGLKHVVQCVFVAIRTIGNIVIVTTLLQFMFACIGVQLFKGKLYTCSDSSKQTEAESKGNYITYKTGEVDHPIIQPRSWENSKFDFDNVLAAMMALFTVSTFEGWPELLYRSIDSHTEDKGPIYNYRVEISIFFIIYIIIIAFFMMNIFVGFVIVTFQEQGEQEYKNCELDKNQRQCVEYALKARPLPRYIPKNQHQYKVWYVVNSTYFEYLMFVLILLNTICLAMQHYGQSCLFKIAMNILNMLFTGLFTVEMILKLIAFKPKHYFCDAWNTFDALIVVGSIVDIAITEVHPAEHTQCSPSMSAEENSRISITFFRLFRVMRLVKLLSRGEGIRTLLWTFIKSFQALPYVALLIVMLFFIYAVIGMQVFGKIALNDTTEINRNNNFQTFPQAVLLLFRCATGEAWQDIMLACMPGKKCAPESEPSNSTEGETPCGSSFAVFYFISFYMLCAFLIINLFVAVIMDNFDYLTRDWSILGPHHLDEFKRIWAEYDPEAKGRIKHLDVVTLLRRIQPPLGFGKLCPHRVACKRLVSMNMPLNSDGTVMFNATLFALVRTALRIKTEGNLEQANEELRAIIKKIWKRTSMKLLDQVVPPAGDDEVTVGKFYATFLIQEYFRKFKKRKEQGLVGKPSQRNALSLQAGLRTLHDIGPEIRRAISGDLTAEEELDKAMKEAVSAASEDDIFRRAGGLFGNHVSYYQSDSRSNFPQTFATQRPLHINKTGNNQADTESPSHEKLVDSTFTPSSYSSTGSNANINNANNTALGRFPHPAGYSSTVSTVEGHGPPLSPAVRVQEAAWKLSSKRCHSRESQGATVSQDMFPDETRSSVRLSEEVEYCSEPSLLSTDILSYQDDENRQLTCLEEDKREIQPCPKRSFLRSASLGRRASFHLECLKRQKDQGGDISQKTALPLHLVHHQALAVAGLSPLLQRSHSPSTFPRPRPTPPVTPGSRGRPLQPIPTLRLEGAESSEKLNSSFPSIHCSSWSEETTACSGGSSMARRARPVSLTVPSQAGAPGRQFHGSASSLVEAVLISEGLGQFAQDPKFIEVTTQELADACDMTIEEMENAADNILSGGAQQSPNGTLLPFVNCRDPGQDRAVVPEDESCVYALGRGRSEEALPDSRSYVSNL

Vasopressin, V1A = Vasopressin, V1A (Homo sapiens, UniProt P37288); assay: Vasopressin, V1A (Human); [125I]-Via Antagonist; format: binding; conditions: read-out: Pass 1 (10^−5 M) % Inhibition
Estrogen = assay: Estrogen; [125I]3,17B-Estradiol, 16a; format: binding; conditions: 10^−5 M
Progesterone = Progesterone (Bos taurus, UniProt F1N712); assay: Progesterone; [3H]Promegestone; format: binding; conditions: read-out: Pass 1 (10^−5 M) % Inhibition
Serotonin Transporter = Serotonin Transporter (Homo sapiens, UniProt P31645); assay: biochemical; conditions: read-out: Pass 1 (10^−5 M) % Inhibition
Galanin = assay: Galanin; [I125]Galanin; format: binding
[3] = test system: Epidermal Growth Factor, EGF; assay: Epidermal Growth Factor, EGF; [125I]EGF; format: binding; conditions: 10^−5 M
Dopamine, D2s = molecular target: T2, Dopamine, D2s (Homo sapiens, UniProt P14416); assay: Dopamine, D2s (Human Recombinant); [3H]-Spiperone; format: binding; conditions: read-out: Pass 1 (10^−5 M) % Inhibition
T2 construct: expressed in transfected cells
T2 sequence (P14416 other isoform, or with tags, fused parts or gaps): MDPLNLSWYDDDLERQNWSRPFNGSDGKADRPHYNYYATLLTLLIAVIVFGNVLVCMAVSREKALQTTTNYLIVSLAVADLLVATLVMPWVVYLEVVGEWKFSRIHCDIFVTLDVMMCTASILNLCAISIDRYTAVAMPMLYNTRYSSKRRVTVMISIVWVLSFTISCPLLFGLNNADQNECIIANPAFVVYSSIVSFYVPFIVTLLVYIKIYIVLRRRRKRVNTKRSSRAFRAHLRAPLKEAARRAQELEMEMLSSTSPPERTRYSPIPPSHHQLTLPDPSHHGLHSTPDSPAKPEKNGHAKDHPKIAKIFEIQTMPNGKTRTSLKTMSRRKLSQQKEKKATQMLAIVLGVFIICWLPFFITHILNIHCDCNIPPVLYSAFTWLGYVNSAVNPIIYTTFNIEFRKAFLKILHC

[4] = test system: Protein Tyrosine Phosphatase, PTP-Cell; assay: Protein Tyrosine Phosphatase, PTP-Cell (Human); substrate pNPP; format: biochemical; conditions: 10^−5 M
[5] = test system: Protein Tyrosine Phosphatase, PTP-B; assay: Protein Tyrosine Phosphatase, PTP-B (Human); substrate pNPP; format: biochemical; conditions: 10^−5 M; footnote: not confirmed in QA/QC follow-up
Leukotrine D4, LTB4 = assay: Leukotrine D4, LTB4; [3H]LTD4; format: binding; conditions: 10^−5 M
Serotonin, 5HT5A = molecular target: T3, Serotonin, 5HT5A (Homo sapiens, UniProt P47898); assay: biochemical; format: binding; conditions: read-out: Pass 1 (10^−5 M) % Inhibition
T3 construct: expressed in transfected cells

Serotonin, 5HT2C = Serotonin, 5HT2C (UniProt K7GSR7); format: binding
[6] = molecular target: T4, Monoamine Oxidase A, Peripheral (Rattus norvegicus, UniProt P21396); assay: biochemical; conditions: read-out: Pass 1 (10^−5 M) % Inhibition
T4 construct: no other source notation after assay name denotes animal cell or animal tissue source; from tissue

[7] = test system: Corticotropin Releasing Factor, CRF; format: binding
Opiate, Delta 2 = molecular target: T5, Opiate, Delta 2 (Homo sapiens, UniProt P41143); assay: Opiate, Delta 2 (Human Recombinant); [3H]-Naltrindole; format: binding; conditions: read-out: Pass 1 (10^−5 M) % Inhibition
T5 construct: expressed in transfected cells

Opiate, Mu = Opiate, Mu (UniProt P33535); format: binding
Chain of Opiate, Mu (P33535 whole entry): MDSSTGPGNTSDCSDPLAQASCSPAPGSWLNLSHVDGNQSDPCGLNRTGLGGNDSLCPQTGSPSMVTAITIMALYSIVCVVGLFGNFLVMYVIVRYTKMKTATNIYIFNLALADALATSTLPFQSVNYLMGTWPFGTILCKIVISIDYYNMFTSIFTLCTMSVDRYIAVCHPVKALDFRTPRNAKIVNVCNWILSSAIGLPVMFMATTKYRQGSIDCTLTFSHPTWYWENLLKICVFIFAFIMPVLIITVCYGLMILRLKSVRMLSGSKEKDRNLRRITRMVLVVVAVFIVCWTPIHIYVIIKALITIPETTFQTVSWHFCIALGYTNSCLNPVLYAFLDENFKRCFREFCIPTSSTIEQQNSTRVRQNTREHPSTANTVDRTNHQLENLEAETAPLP

Serotonin, 5HT2A = Serotonin, 5HT2A (Homo sapiens, UniProt P28223); assay: biochemical; format: binding; conditions: read-out: Pass 1 (10^−5 M) % Inhibition
Imidazoline, I1 = assay: Imidazoline, I1; [125I]-Clonidine; format: binding; conditions: 10^−5 M
Orphanin = molecular target: T6, Orphanin (Homo sapiens, UniProt P41146); assay: biochemical; format: binding; conditions: read-out: Pass 1 (10^−5 M) % Inhibition
T6 construct: expressed in transfected cells

Glutamate Transport = assay: Glutamate Transport; [3H]Glutamic Acid; format: biochemical; conditions: 10^−5 M
Complement C5a = Complement C5a (Homo sapiens, UniProt P21730); assay: Complement C5a (Human); [125I]BH-rC5a; format: binding; conditions: read-out: Pass 1 (10^−5 M) % Inhibition
[8] = molecular target: T7, Protein Tyrosine Phosphatase, PTP-LAR-D1 (Homo sapiens, UniProt P10586); assay: Protein Tyrosine Phosphatase, PTP-LAR-D1 (Human); substrate pNPP; format: biochemical; conditions: read-out: Pass 1 (10^−5 M) % Inhibition
T7 construct: PTP-LAR-D1

[9] = test system: Cholecystokinin, CCK2 (CCKB); assay: Cholecystokinin, CCK2 (CCKB); [125I]CCK-8; format: binding; conditions: 10^−5 M
Leukotrine B4, LTB4 = assay: Leukotrine B4, LTB4; [3H]LTB4; format: binding; conditions: 10^−5 M
[10] = test system: Protein Phosphatase, PP2B (Calcineurin); assay: Protein Phosphatase, PP2B (Calcineurin); substrate pNPP; format: biochemical; conditions: 10^−5 M
Adrenergic, Alpha 2C = molecular target: T8, Adrenergic, Alpha 2C (Homo sapiens, UniProt P18825); assay: Adrenergic, Alpha 2C (Human Recombinant); [3H]MK-912; format: binding; conditions: read-out: Pass 1 (10^−5 M) % Inhibition
T8 construct: expressed in transfected cells

Serotonin, 5HT1A = format: binding
[11] = test system: Nicotinic (a-bungarotoxin insensitive); format: binding; conditions: 10^−5 M
Opiate, Kappa = molecular target: T9, Opiate, Kappa (Homo sapiens, UniProt P41145); assay: biochemical; format: binding; conditions: read-out: Pass 1 (10^−5 M) % Inhibition
T9 construct: expressed in transfected cells
T9 sequence (P41145 whole entry): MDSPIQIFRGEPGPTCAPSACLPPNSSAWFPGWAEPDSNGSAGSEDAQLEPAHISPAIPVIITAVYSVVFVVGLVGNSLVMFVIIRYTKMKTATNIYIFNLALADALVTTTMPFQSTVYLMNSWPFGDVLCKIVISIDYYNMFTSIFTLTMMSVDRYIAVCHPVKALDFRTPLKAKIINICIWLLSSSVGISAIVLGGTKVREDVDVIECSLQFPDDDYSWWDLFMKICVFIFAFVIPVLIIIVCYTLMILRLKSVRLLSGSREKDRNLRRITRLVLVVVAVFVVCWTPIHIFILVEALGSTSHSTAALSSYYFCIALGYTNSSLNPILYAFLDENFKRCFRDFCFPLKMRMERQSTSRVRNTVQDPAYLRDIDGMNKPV

Dopamine, D1 = Dopamine, D1 (Homo sapiens, UniProt P21728); assay: biochemical; conditions: read-out: Pass 1 (10^−5 M) % Inhibition
[12] = test system: Glutamate, NMDA Agonist Site; assay: Glutamate, NMDA Agonist Site; [3H]CGP 39653; format: binding; conditions: 10^−5 M
Serotonin, 5HT1B = molecular target: T10, Serotonin, 5HT1B (Rattus norvegicus, UniProt P28564); assay: biochemical; format: binding; conditions: read-out: Pass 1 (10^−5 M) % Inhibition
T10 construct: no other source notation after assay name denotes animal cell or animal tissue source; from tissue; host or cells: animal cell or animal tissue, not specified
T10 sequence (P28564 whole entry): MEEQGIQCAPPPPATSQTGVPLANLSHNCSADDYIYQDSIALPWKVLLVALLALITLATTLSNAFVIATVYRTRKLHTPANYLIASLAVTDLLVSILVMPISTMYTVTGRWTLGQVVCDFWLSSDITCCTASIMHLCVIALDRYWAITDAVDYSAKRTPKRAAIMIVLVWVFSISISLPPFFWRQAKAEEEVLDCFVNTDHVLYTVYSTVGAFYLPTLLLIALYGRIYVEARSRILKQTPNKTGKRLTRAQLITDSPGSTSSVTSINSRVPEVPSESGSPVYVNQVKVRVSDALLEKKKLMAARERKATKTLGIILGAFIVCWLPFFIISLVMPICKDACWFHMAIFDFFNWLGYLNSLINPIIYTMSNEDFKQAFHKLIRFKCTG

Adrenergic, Beta 2 = Adrenergic, Beta 2 (Homo sapiens, UniProt P07550); assay: biochemical; format: binding; conditions: read-out: Pass 1 (10^−5 M) % Inhibition
Adrenergic, Alpha 2B = Adrenergic, Alpha 2B (UniProt P19328); format: binding
Chain of Adrenergic, Alpha 2B (P19328 whole entry): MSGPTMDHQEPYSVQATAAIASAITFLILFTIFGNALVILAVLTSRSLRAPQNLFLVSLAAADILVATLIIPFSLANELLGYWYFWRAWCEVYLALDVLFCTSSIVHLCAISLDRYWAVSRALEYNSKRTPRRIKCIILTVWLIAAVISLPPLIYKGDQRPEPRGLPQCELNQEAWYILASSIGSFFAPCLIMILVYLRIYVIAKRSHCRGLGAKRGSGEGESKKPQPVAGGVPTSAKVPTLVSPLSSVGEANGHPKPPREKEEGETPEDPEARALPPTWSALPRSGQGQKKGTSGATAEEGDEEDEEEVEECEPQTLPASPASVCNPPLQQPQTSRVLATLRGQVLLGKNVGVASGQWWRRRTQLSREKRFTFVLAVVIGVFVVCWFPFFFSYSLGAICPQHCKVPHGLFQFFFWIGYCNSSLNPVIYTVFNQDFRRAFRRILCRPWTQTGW

Chain of Serotonin, 5HT3 (P23979 24-489): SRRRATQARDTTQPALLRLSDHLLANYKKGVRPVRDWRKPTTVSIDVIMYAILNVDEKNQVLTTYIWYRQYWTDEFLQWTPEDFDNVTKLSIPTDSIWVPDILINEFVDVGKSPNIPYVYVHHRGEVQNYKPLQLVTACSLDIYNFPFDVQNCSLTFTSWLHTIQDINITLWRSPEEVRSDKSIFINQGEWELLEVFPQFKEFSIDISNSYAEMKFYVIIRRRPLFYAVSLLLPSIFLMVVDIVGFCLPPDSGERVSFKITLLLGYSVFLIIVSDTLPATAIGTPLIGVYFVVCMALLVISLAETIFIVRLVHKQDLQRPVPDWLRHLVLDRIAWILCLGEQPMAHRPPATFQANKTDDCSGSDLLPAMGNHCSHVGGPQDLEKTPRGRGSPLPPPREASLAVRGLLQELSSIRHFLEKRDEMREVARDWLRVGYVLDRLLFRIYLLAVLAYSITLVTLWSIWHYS
Chain of Protein Phosphatase, PP2A (P67775 whole entry): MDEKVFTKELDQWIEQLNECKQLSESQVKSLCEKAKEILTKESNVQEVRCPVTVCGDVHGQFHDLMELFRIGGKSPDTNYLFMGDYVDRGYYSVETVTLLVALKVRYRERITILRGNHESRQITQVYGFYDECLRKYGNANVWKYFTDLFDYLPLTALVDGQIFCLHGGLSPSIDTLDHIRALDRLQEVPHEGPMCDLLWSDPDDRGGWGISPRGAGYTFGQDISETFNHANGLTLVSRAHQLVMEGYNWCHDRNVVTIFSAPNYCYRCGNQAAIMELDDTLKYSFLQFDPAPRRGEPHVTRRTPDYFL

COC(=O)[C@H]1[C@@H](OC(=O)c2ccccc2)C[C@@H]2CC[C@H]1N2C [cocaine]
Pass 1 (10^−5 M) % Inhibition (GABA A, Agonist Site): 5.81% | Pass 1 (10^−5 M) % Inhibition (Clozapine): 1.37% | Ki (Serotonin, 5HT3; Pass 3 screening, nine concentrations, read-out: Ki Determination): 3.09 µM | inhibition at 10 µM (Serotonin, 5HT3; read-out: Pass 1 (10^−5 M) % Inhibition): 60.3% | inhibition at 10 µM [1]: 15.3% | Pass 1 (10^−5 M) % Inhibition (Sodium, Site 1): 2.74% | inhibition at 10 µM (Histamine, H1): -19.7% | inhibition at 10 µM [2]: 10.2% | inhibition at 10 µM (Vasopressin, V1A): -4.37% | Pass 1 (10^−5 M) % Inhibition (Estrogen): 12.80% | inhibition at 10 µM (Progesterone): -10.9% | inhibition at 10 µM (Serotonin Transporter): 97.5% | Pass 1 (10^−5 M) % Inhibition (Galanin): −14.73% | Pass 1 (10^−5 M) % Inhibition [3]: 10.05% | inhibition at 10 µM (Dopamine, D2s): 30.6% | Pass 1 (10^−5 M) % Inhibition [4]: −17.63% | Pass 1 (10^−5 M) % Inhibition [5]: 65.03% | Pass 1 (10^−5 M) % Inhibition (Leukotrine D4, LTB4): −17.11% | inhibition at 10 µM (Serotonin, 5HT5A): 12% | Pass 1 (10^−5 M) % Inhibition (Serotonin, 5HT2C): 1.44% | inhibition at 10 µM [6]: 32.8% | Pass 1 (10^−5 M) % Inhibition [7]: 22.49% | inhibition at 10 µM (Opiate, Delta 2): 21.5% | Pass 1 (10^−5 M) % Inhibition (Opiate, Mu): −4.22% | inhibition at 10 µM (Serotonin, 5HT2A): 23.4% | Pass 1 (10^−5 M) % Inhibition (Imidazoline, I1): −0.78% | inhibition at 10 µM (Orphanin): 32.3% | Pass 1 (10^−5 M) % Inhibition (Glutamate Transport): 24.20% | inhibition at 10 µM (Complement C5a): 15.2% | inhibition at 10 µM [8]: 24.4% | Pass 1 (10^−5 M) % Inhibition [9]: −14.06% | Pass 1 (10^−5 M) % Inhibition (Leukotrine B4, LTB4): 17.06% | Pass 1 (10^−5 M) % Inhibition [10]: −10.37% | inhibition at 10 µM (Adrenergic, Alpha 2C): -5.94% | Pass 1 (10^−5 M) % Inhibition (Serotonin, 5HT1A): 0.52% | Pass 1 (10^−5 M) % Inhibition [11]: 12.28% | inhibition at 10 µM (Opiate, Kappa): 1.87% | inhibition at 10 µM (Dopamine, D1): 17.5% | Pass 1 (10^−5 M) % Inhibition [12]: 38.66% | inhibition at 10 µM (Serotonin, 5HT1B): 3.31% | inhibition at 10 µM (Adrenergic, Beta 2): -15.6% | Pass 1 (10^−5 M) % Inhibition (Adrenergic, Alpha 2B): −3.82%
